Test results from PubChem BioAssay AID2060493 (Molecular Pharmacology Branch, DTP, NCI, 2025).

Tested on: 616215-338-R-J1-PDC tumor spheroids, viability
Test: Anticancer human tumor 616215-338-R-J1-PDC patient-derived colon adenocarcinoma cell line growth inhibition [GQUAD]
Settings: spheroids with HUVEC and MSC; for IC50: curve of first compound; for viability, T/C: stronger effect = lower value
Text: DNA G-quadruplex Stabilizer Agents in Combinations in Complex Spheroids
A high-throughput screen of multi-cell type tumor spheroids was designed to identify active combinations of DNA G-quadruplex stabilizer agents and targeted small molecules. Complex spheroids include a stromal component modeled by human endothelial cells (HUVEC) and fibroblasts modeled by human mesenchymal stem cells (MSCs). The concentration ranges selected for each drug and investigational agent were based upon clinically achievable concentrations if the clinical Cmax of the agent was known.
Compounds. The drugs and investigational agents: pidnarulex (CX-5461; NSC782164), APTO-253 (NSC789042), BRACO-19 (NSC847499), peposertib (NSC802822), ceralasertib (NSC780249), elimusertib (NSC800525), camonsertib (NSC841442), AZD-1390 (NSC803789), olaparib (NSC753686), talazoparib (NSC767125), ART-558 (NSC835418), sotorasib (NSC818433), MRTX-1133 (NSC836407), SN-38 (NSC673596), topotecan (NSC609699), etoposide (NSC141540), doxorubicin (NSC123127), gemcitabine (NSC613327), 5-fluorouracil (NSC19893), paclitaxel (NSC125973), vemurafenib (NSC761431), panobinostat (NSC761190), R-306465 (JNJ-16241199; NSC773264), adavosertib (NSC754352), TP-3654 (NSC805149), carboplatin (NSC241240), KSQ-4279 (NSC840948), and staurosporine (NSC755774) were obtained from the National Cancer Institute (NCI) Developmental Therapeutics Program Chemical Repository (34). The FDA-approved anticancer drug set is available from the NCI Developmental Therapeutics Program. […] The stock solutions were prepared in dimethyl sulfoxide (DMSO, Sigma-Aldrich, St. Louis, MO, cat. D2650) at 800-fold the tested concentration and stored at -70 degrees C prior to their use. All drugs and investigational agents were tested over a range starting from a high concentration at or near the clinical Cmax and decreasing in half-log increments. If the clinical Cmax for an agent had not been determined, the highest concentration tested was 10 microM.
2.3 Cell Culture. All cells were maintained in an incubator at 37 degrees C and 5% CO2 with 95% humidity. The PDC lines were cultured according to standard operating procedures established by the NCI PDMR. All PDCs were thawed and cultured in Matrigel-coated flasks prepared with a working solution of 1X Ham's F-12 nutrient mix, without supplementation (Invitrogen, cat. 11765054), 100 U/mL penicillin-streptomycin (Invitrogen, cat. 15140122), and 2.5% Matrigel (Corning Inc., cat. 354248) for the first three passages. The 857933-349-R-J2-PDC line was cultured in 6C/Colon 1B media, which includes advanced DMEM/F-12 (Thermo Fisher Scientific, cat. 12634028), 10 mM HEPES (Thermo Fisher Scientific, cat. 15630080), 1X GlutaMAX supplement (Thermo Fisher Scientific, cat. 35050061), 0.1 mg/mL primocin (InvivoGen, cat. ant-pm-2), 10% defined fetal bovine serum, heat inactivated (HyClone Laboratories Inc., cat. SH30070.03HI), 50% L-WRN conditioned media (ATCC, cat. CRL-3276), 1.25 mM N-Acetyl-L-cysteine (Sigma-Aldrich, cat. A9165), 10 mM nicotinamide (Sigma-Aldrich, cat. N0636), 1X B-27 supplement (Thermo Fisher Scientific, cat. 17504044), 1X N-2 supplement (Thermo Fisher Scientific, cat. 17502048), 10 microM Y-27632 dihydrochloride (Tocris Bioscience, cat. 1254), and 50 ng/mL human EGF recombinant protein (Thermo Fisher Scientific, cat. PHG0311). The 485176-168-R4-J1-PDC line was cultured in Panc media, which includes all 6C/Colon 1B media components plus 100 ng/mL human FGF-10 (Thermo Fisher Scientific, cat. 100-26), 500 nM SB-431542 (Selleckchem, cat. S1067), and gastrin (Tocris, cat. 3006).
[…]

[1] = second compound 0.0316 µM, first compound 0.0316 µM
[2] = second compound 0.0316 µM, first compound 0.1 µM
[3] = second compound 0.0316 µM, first compound 0.316 µM
[4] = second compound 0.0316 µM, first compound 1 µM
[5] = second compound 0.0316 µM, first compound 3.16 µM
[6] = second compound 0.0316 µM, first compound 10 µM
[7] = second compound 0.1 µM, first compound 0.0316 µM
[8] = second compound 0.1 µM, first compound 0.1 µM
[9] = second compound 0.1 µM, first compound 0.316 µM
[10] = second compound 0.1 µM, first compound 1 µM
[11] = second compound 0.1 µM, first compound 3.16 µM
[12] = second compound 0.1 µM, first compound 10 µM
[13] = second compound 0.316 µM, first compound 0.0316 µM
[14] = second compound 0.316 µM, first compound 0.1 µM
[15] = second compound 0.316 µM, first compound 0.316 µM
[16] = second compound 0.316 µM, first compound 1 µM
[17] = second compound 0.316 µM, first compound 3.16 µM
[18] = second compound 0.316 µM, first compound 10 µM
[19] = second compound 1 µM, first compound 0.0316 µM
[20] = second compound 1 µM, first compound 0.1 µM
[21] = second compound 1 µM, first compound 0.316 µM
[22] = second compound 1 µM, first compound 1 µM
[23] = second compound 1 µM, first compound 3.16 µM
[24] = second compound 1 µM, first compound 10 µM
[25] = second compound 3.16 µM, first compound 0.0316 µM
[26] = second compound 3.16 µM, first compound 0.1 µM
[27] = second compound 3.16 µM, first compound 0.316 µM
[28] = second compound 3.16 µM, first compound 1 µM
[29] = second compound 3.16 µM, first compound 3.16 µM
[30] = second compound 3.16 µM, first compound 10 µM
[31] = second compound 10 µM, first compound 0.0316 µM
[32] = second compound 10 µM, first compound 0.1 µM
[33] = second compound 10 µM, first compound 0.316 µM
[34] = second compound 10 µM, first compound 1 µM
[35] = second compound 10 µM, first compound 3.16 µM
[36] = second compound 10 µM, first compound 10 µM
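Also: spheroids exposed to agents for 7 days before readout.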
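For viability, T/C in this document: percent viability relative to DMSO vehicle control wells taken as 100%.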

## CC(C)n1c(=O)n(C)c2cnc3cc(F)c(-c4ccc(OCCCN5CCCCC5)nc4)cc3c21 + CN(C)c1ccc(Nc2c3ccc(NC(=O)CCN4CCCC4)cc3nc3cc(NC(=O)CCN4CCCC4)ccc23)cc1
Second compound 0.0316 µM
  IC50: > 10 µM
Second compound 0.1 µM
  IC50: > 10 µM
Second compound 0.316 µM
  IC50: > 10 µM
Second compound 1 µM
  IC50: > 10 µM
Second compound 3.16 µM
  IC50: 9.93 µM
Second compound 10 µM
  IC50: 3.09 µM
[1]
  viability, T/C: 110%
[2]
  viability, T/C: 112%
[3]
  viability, T/C: 96.3%
[4]
  viability, T/C: 109%
[5]
  viability, T/C: 105%
[6]
  viability, T/C: 62.2%
[7]
  viability, T/C: 110%
[8]
  viability, T/C: 104%
[9]
  viability, T/C: 101%
[10]
  viability, T/C: 111%
[11]
  viability, T/C: 103%
[12]
  viability, T/C: 81.1%
[13]
  viability, T/C: 97.2%
[14]
  viability, T/C: 99.7%
[15]
  viability, T/C: 97.8%
[16]
  viability, T/C: 103%
[17]
  viability, T/C: 121%
[18]
  viability, T/C: 95.7%
[19]
  viability, T/C: 101%
[20]
  viability, T/C: 97.2%
[21]
  viability, T/C: 103%
[22]
  viability, T/C: 97.9%
[23]
  viability, T/C: 111%
[24]
  viability, T/C: 83.5%
[25]
  viability, T/C: 105%
[26]
  viability, T/C: 101%
[27]
  viability, T/C: 101%
[28]
  viability, T/C: 91.9%
[29]
  viability, T/C: 100%
[30]
  viability, T/C: 49.6%
[31]
  viability, T/C: 95.8%
[32]
  viability, T/C: 77.1%
[33]
  viability, T/C: 55.6%
[34]
  viability, T/C: 64.6%
[35]
  viability, T/C: 61.6%
[36]
  viability, T/C: 7.08%

## Nc1ccn(C2OC(CO)C(O)C2(F)F)c(=O)n1 (centres undefined) + CN(C)c1ccc(Nc2c3ccc(NC(=O)CCN4CCCC4)cc3nc3cc(NC(=O)CCN4CCCC4)ccc23)cc1
Second compound 0.0316 µM
  IC50: < 0.0316 µM
Second compound 0.1 µM
  IC50: < 0.0316 µM
Second compound 0.316 µM
  IC50: < 0.0316 µM
Second compound 1 µM
  IC50: < 0.0316 µM
Second compound 3.16 µM
  IC50: < 0.0316 µM
Second compound 10 µM
  IC50: < 0.0316 µM
[1]
  viability, T/C: 39.4%
[2]
  viability, T/C: 18.3%
[3]
  viability, T/C: 11.6%
[4]
  viability, T/C: 9.94%
[5]
  viability, T/C: 10.2%
[6]
  viability, T/C: 11.1%
[7]
  viability, T/C: 39.2%
[8]
  viability, T/C: 14.7%
[9]
  viability, T/C: 12%
[10]
  viability, T/C: 9.37%
[11]
  viability, T/C: 10.9%
[12]
  viability, T/C: 8.91%
[13]
  viability, T/C: 43.8%
[14]
  viability, T/C: 20.2%
[15]
  viability, T/C: 11.3%
[16]
  viability, T/C: 7.36%
[17]
  viability, T/C: 8.69%
[18]
  viability, T/C: 10.9%
[19]
  viability, T/C: 34.6%
[20]
  viability, T/C: 19.2%
[21]
  viability, T/C: 9.69%
[22]
  viability, T/C: 9.64%
[23]
  viability, T/C: 11.7%
[24]
  viability, T/C: 14.1%
[25]
  viability, T/C: 45.3%
[26]
  viability, T/C: 26%
[27]
  viability, T/C: 12.3%
[28]
  viability, T/C: 8.37%
[29]
  viability, T/C: 11.2%
[30]
  viability, T/C: 9.17%
[31]
  viability, T/C: 30.2%
[32]
  viability, T/C: 19.6%
[33]
  viability, T/C: 7.93%
[34]
  viability, T/C: 6.14%
[35]
  viability, T/C: 8.89%
[36]
  viability, T/C: 8.2%
